Results taken from patent US12465609B2, “Methods of treating patients suffering from a disease condition or disorder that is associated with an increased glutamate level” (veriNOS operations GmbH, priority 2022, dated 2025).

System: extracellular brain lactate level
Assay: Brain microdialysis, extracellular cerebral lactate levels in TBI patients
Assay type: in vivo, human
Method: To monitor the metabolic condition of the patients, extracellular brain glutamate and lactate levels were measured. In more detail, the extracellular intracerebral glutamate and lactate levels measured here is the glutamate or lactate level in brain extracellular fluid (ECF). […] The measurements of the glutamate and lactate levels was carried out using established brain microdialysis (MD) methodology as described, for example, by Chamoun et al, example. Role of extracellular glutamate measured by cerebral microdialysis in severe traumatic brain injury. J Neurosurg. 2010 September; 113(3): 564-570.
The microdialysis (MD) equipment was obtained from M Dialysis AB, Stockholm, Sweden, see www.mdialysis.com. The following equipment was used. • Cerebral MD catheters: CMA 70 • CMA 70 bolt catheter • CMA 71 high cut-off cerebral catheter • Pumps: CMA106=fixed flow rate, CMA107=flexible flow rate • Perfusion solution: Cerebral: Perfusion fluid CNS • Analyzers: CMA 600, ISCUS, ISCUSflex Time Point of MD Catheter Insertion • Aim: Obtain stable baseline values before infusing study drug • Ideal: By 14 hours after TBI or 4 hours before study drug infusion to allow for tissue adaptation, usually lasting 1-4 hours • Compromise: As soon as possible, within 4 hours after beginning study drug infusion Site of Cerebral MD Catheter Insertion • Aim: Monitor metabolic changes close to structural damage visible on routine CT scan • Contusion: Close to the contusion • Mixed lesions: Predominantly injured hemisphere • With bolt system: Right or left frontal lobe • Without bolt system: Right or left frontal/temporal/parietal area • If possible cerebral MD catheter should be placed ipsilateral to the ICP probe • Special care should be taken to avoid inducing injury to pre- and postcentral cortex • The position of the MD probe and the position of the ICP probe in the eCRF should be indicated.
The cerebral glutamate and lactate levels were recorded every 1 h up to 5 days after the start of the infusion. Absolute values were be summarized per treatment group and for each time point by means of descriptive statistics. The 95% confidence intervals for the mean were calculated (normal approximation).
For the analysis of the metabolic state, it was considered that under normal (physiological) conditions glutamate is maintained at low levels (micromolar) in the extracellular space (<2 μmol/L) and in plasma (50-100 μmol/L) to avoid excessive glutamate receptor activation. Within the different intracellular compartments glutamate is present in higher amounts (5-15 millimolar). In brain microdialysis, glutamate levels exceeding 10 μmol/L are considered elevated, higher glutamate levels are associated with worse outcome. In addition to the absolute levels, dynamic changes are also important in interpreting underlying pathology. In brain microdialysis and blood, lactate levels exceeding 2.5 millimol/L are considered pathologically elevated, reflecting insufficient metabolic/energetic stability which is further aggravated by insufficient oxygen supply.

C[C@H](O)[C@H](O)C1CNc2nc(N)nc(N)c2N1 (mixture of isomers) [Ronopterin, 4-Amino-(6R,S)-5,6,7,8-tetrahydro-L-biopterin]
extracellular cerebral lactate levels (18 to 39 years, all times to infusion, patients reaching <2.5 millimol/L (FIG. 7A)): lower brain lactate levels compared to the placebo group | extracellular cerebral lactate levels (18 to 39 years, infusion >12 hours, a number of patients <2.5 millimol/L (FIG. 8C)): lower brain lactate levels than the placebo group | extracellular cerebral lactate levels (18 to 39 years, infusion ≤12 hours, a number of patients <2.5 millimol/L (FIG. 8A)): lower brain lactate levels than the placebo group | extracellular cerebral lactate levels (40 to 60 years, all times to infusion, all patients, higher than placebo (FIG. 7C)): ≥ 2.5 millimol/L | extracellular cerebral lactate levels (40 to 60 years, infusion ≤12 hours, all patients, higher than placebo (FIG. 9A)): ≥ 2.5 millimol/L | extracellular brain lactate levels (within 120 hours after administration, stayed below threshold or only slightly elevated): < 2.5 millimol/L
